Holding throughout (format): cell-based
The test system of assay [1] is Wild-type P. aeruginosa PAO1. The assay can be described thus: Broth microdilution MIC, wild-type P. aeruginosa PAO1. The settings on record: Pseudomonas aeruginosa; wild-type P. aeruginosa PAO1, 37° C., 18 h; read-out: PAO1 WT MIC. Here is the method: (§1) Exemplary compounds from the above Examples were tested to determine their minimum inhibitory concentration (MIC) for exemplary strains of Escherichia and Pseudomonas bacteria using broth microdilution methods. Assay procedures and results are described below.
(§2) Broth microdilution assays were conducted according to Clinical and Laboratory Standards Institute guidelines (CLSI, M07-A^11: Clinical and Laboratory Standards Institute. Methods for Dilution Antimicrobial Susceptibility Tests for Bacteria that Grow Aerobically; Approved Standard-11th Edition. Wayne, PA: CLSI, 2018). Briefly, bacterial suspensions were adjusted to a density equivalent to a 0.5 McFarland standard and diluted in sterile, cation-adjusted Mueller-Hinton broth (Beckton Dickinson) to yield a final inoculum between 2×10^5 and 8×10^5 colony-forming units (CFU)/mL. An inoculum volume of 98 μL was added to wells containing 2 μL of 2-fold serial dilutions of drug (prepared in DMSO). All inoculated microdilution trays were incubated in ambient air at 37° C. for 18 h. […] Performance of the assay was monitored by the use of laboratory quality-control strains (S. aureus ATCC 29213 and P. aeruginosa ATCC 27853) and levofloxacin, a compound with a defined MIC spectrum, in accordance with CLSI guidelines (CLSI, M100Ed29: Clinical and Laboratory Standards Institute. Performance Standards for Antimicrobial Susceptibility Testing, 29th Edition. Wayne, PA: CLSI, 2018).
(§3) Multiple enterobacteriaceae strains were tested, including both wild-type strains and multi-drug resistance pump deficient mutants. Specific strains tested included the following: • Wild-type P. aeruginosa PAO1, • P. aeruginosa PAO1 ΔmexABoprM—Disabled multi-drug efflux system Δ(MexAB-OprM), • P. aeruginosa PAO397—PAO1Δ(mexAB-oprM) Δ(mexCD-oprJ) Δ(mexEF-oprN) Δ(mexJK) Δ(mexXY) ΔopmH, • P. aeruginosa LESB58—Clinical isolate; colistin-resistant, isolated in the United Kingdom in 1988 from a patient with cystic fibrosis • E. coli JW0452-3 (BW25113 JacrA::kan)—Disabled multi-drug efflux system (AcrAB-TolC).
(§4) Experimental results are provided in Table 11, which provides MIC values for wild-type P. aeruginosa PAO1 (“PAO1 WT MIC”), P. aeruginosa PAO ΔmexABoprM (“PAO1 KO MIC”), P. aeruginosa PAO397 (“PAO397 KO MIC”), P. aeruginosa LESB58 (“LESB58”), and E. coli JW0452-3 (BW25113 JacrA::kan) (“E. coli KO MIC”).
On the technique in general: Dilution methods test growth across graded concentrations, often in twofold steps.

A further assay has as its system P. aeruginosa LESB58. The assay can be described thus: Broth microdilution MIC, P. aeruginosa LESB58. The settings on record: Pseudomonas aeruginosa; P. aeruginosa LESB58 clinical isolate, colistin-resistant, 37° C., 18 h. Here is the method:
as §1, §2, §3, §4

A further assay relates to P. aeruginosa PAO397. Nature of the assay: Broth microdilution MIC, P. aeruginosa PAO397. Particulars: Pseudomonas aeruginosa, PAO397, 18 h, read-out: PAO397 KO MIC. How it is done:
as §1, §2, §3, §4

In brackets after ≈: the same amount, converted by molar mass.

Usually MIC stands for the lowest concentration found to suppress growth. `N#Cc1ccc(CN(Cc2nnc(N)o2)C(=O)COc2cc(F)cc(F)c2C2CC2)c(F)c1` [compound 81]: the minimum inhibitory concentration (MIC) in assay [1] lay in the range of 16 to 64 µg/mL (≈ 35 to 140 µM); in the assay with P. aeruginosa LESB58, 1 to 16 µg/mL (≈ 2.19 to 35 µM).
As to `Nc1nnc(CN(Cc2ccc(S(N)(=O)=O)cc2)C(=O)COc2cc(F)cc(F)c2Cl)o1` [compound 120], the MIC in assay [1] was more than 64 µg/mL; with P. aeruginosa LESB58, 16 to 64 µg/mL (≈ 32.8 to 131 µM).
On to `[2H]C([2H])(Oc1cc(F)cc(F)c1C([2H])([2H])C([2H])([2H])[2H])C(=O)N(Cc1ccc(C#N)nc1)Cc1nnc(N)o1` [compound 82], for which the results for the MIC (in assay [1]; against P. aeruginosa LESB58) were more than 64 µg/mL and 16 to 64 µg/mL (≈ 36.7 to 147 µM), respectively.
Taken in the same sequence, the figures for `[2H]CC([2H])c1c(F)cc(F)cc1OCC(=O)N(Cc1nnc(N)o1)Cc1ccc(C#N)cc1F` (stereo not shown) [compound 112] were 1 to 16 µg/mL (≈ 2.24 to 35.8 µM) and 1 to 16 µg/mL (≈ 2.24 to 35.8 µM).
Turning to `CC(C)c1ccccc1OCC(=O)N(Cc1ccc(C#N)cc1)Cc1nnc(N)o1` [compound 53], the MIC was more than 64 µg/mL in assay [1] and 1 to 16 µg/mL (≈ 2.47 to 39.5 µM) in the assay on P. aeruginosa PAO397.
On to `[2H]C([2H])(Oc1ccccc1C([2H])([2H])C([2H])([2H])[2H])C(=O)N(Cc1nnc(N)o1)Cc1ccc(C#N)cc1F` [compound 114], for which the MIC in assay [1] is more than 64 µg/mL; in the assay with P. aeruginosa LESB58, 16 to 64 µg/mL (≈ 38.4 to 154 µM).
Turning to `Cc1ncc(CN(Cc2ccc(C#N)cc2)C(=O)CSc2ccccc2Cl)[nH]1` [compound 75], the MIC in assay [1] was more than 64 µg/mL; with P. aeruginosa PAO397, 1 to 16 µg/mL (≈ 2.43 to 38.9 µM).
Turning to `N#Cc1ccc(CN(Cc2nnc(N)o2)C(=O)CSc2ccccc2CC(F)(F)F)c(F)c1` [compound 118], the MIC (in assay [1]; against P. aeruginosa LESB58) was more than 64 µg/mL each time.
Turning to `N#Cc1ccc(CN(Cc2nnc(N)o2)C(=O)/C=C/c2ccccc2Cl)c(F)c1` [compound 99], the MIC (in assay [1]; in the assay on P. aeruginosa LESB58) was more than 64 µg/mL throughout.
Consider `[2H]C([2H])(Oc1cc(F)cc(F)c1C([2H])([2H])C([2H])([2H])[2H])C(=O)N(Cc1nnc(N)o1)Cc1ccc(S(N)(=O)=O)cc1F` [compound 111, N-[(5-Amino-1,3,4-oxadiazol-2-yl)methyl]-2,2-dideuterio-2-[3,5-difluoro-2-(1,1,2,2,2-pentadeuterioethyl)phenoxy]-N-[(2-fluoro-4-sulfamoyl-phenyl)methyl]acetamide], for which the MIC in assay [1] lay in the range of 16 to 64 µg/mL (≈ 31.6 to 126 µM); in the assay on P. aeruginosa LESB58, 1 to 16 µg/mL (≈ 1.97 to 31.6 µM).
Turning to `CCc1c(F)cc(F)cc1OC(C)C(=O)N(Cc1nnc(N)o1)Cc1ccc(C#N)cc1F` (single isomer, unassigned) [Compound No. 100], the MIC (in assay [1]; with P. aeruginosa LESB58) was 1 to 16 µg/mL (≈ 2.18 to 34.8 µM) each time.
As to `N#Cc1ccc(CN(Cc2nnc(N)o2)C(=O)COc2cc(F)cc(F)c2C2CC2)cn1` [compound 85], the figures for the MIC (in assay [1]; in the assay with P. aeruginosa LESB58) were more than 64 µg/mL and 16 to 64 µg/mL (≈ 36.3 to 145 µM), respectively.
On to `N#Cc1ccc(CN(Cc2nnc(N)o2)C(=O)COc2ccc(F)cc2Cl)c(F)c1` [compound 121], for which the minimum inhibitory concentration (MIC) (in assay [1]; with P. aeruginosa LESB58) was more than 64 µg/mL each time.
As for `CCc1c(F)cc(F)cc1OCC(=O)N(Cc1nnc(N)o1)Cc1ccc(S(N)(=O)=O)cc1F` [compound 79, N-[(5-Amino-1,3,4-oxadiazol-2-yl)methyl]-2-(2-ethyl-3,5-difluoro-phenoxy)-N-[(2-fluoro-4-sulfamoyl-phenyl)methyl]acetamide], the minimum inhibitory concentration (MIC) (in assay [1]; against P. aeruginosa LESB58) was 1 to 16 µg/mL (≈ 2 to 32 µM) in each case.
For `CNC(=O)CN(Cc1ccc(-n2cncn2)cc1)C(=O)CSc1ccccc1Cl` [compound 91], the minimal inhibitory concentration (MIC) in assay [1] is more than 64 µg/mL.
For `CCc1c(F)cc(F)cc1O[C@@H](C)C(=O)N(Cc1nnc(N)o1)Cc1ccc(C#N)cc1F` [compound 101], the MIC (in assay [1]; against P. aeruginosa LESB58) was more than 64 µg/mL in each case.
Consider `N#Cc1ccc(CN(C(=O)CSc2ccccc2Cl)C2(c3nnc(N)o3)CC2)cc1` [compound 22], for which the minimum inhibitory concentration (MIC) in assay [1] was more than 64 µg/mL; with P. aeruginosa PAO397, 1 to 16 µg/mL (≈ 2.27 to 36.4 µM).
Take `N#Cc1ccc(CN(Cc2nnc(N)o2)C(=O)CSc2cc(CN)ccc2Cl)cn1` [compound 115]: the minimum inhibitory concentration (MIC) in assay [1] was more than 64 µg/mL.
Consider `N#Cc1ccc(CN(CC(=O)NC2CCNCC2)C(=O)CSc2ccccc2Cl)cc1` [compound 4], for which the results for the MIC (in assay [1]; with P. aeruginosa PAO397) were more than 64 µg/mL and 16 to 64 µg/mL (≈ 35 to 140 µM), respectively.
On to `[2H]C([2H])C([2H])([2H])c1ccccc1OCC(=O)N(Cc1nnc(N)o1)Cc1ccc(C#N)cc1F` [compound 113], for which the minimal inhibitory concentration (MIC) in assay [1] was more than 64 µg/mL; with P. aeruginosa LESB58, 16 to 64 µg/mL (≈ 38.7 to 155 µM).
Turning to `N#Cc1ccc(CN(Cc2nnc(N)o2)C(=O)COc2ccccc2Cl)cn1` [compound 17], the values for the MIC (in assay [1]; in the assay with P. aeruginosa PAO397) were more than 64 µg/mL and 1 to 16 µg/mL (≈ 2.51 to 40.1 µM), respectively.
Take `Nc1nnc(CN(Cc2ccc(S(N)(=O)=O)cc2F)C(=O)COc2cc(F)cc(F)c2C2CC2)o1` [compound 80]: the MIC in assay [1] is 16 to 64 µg/mL (≈ 31.3 to 125 µM); in the assay with P. aeruginosa LESB58, 1 to 16 µg/mL (≈ 1.96 to 31.3 µM).
Turning to `N#Cc1ccc(CN(CC(=O)NC2COC2)C(=O)CSc2ccccc2Cl)cc1` [Compound No. 1, 2-[[2-(2-Chlorophenyl)sulfanylacetyl]-[(4-cyanophenyl)methyl]amino]-N-(oxetan-3-yl)acetamide], the MIC in the assay with P. aeruginosa PAO397 lay within 1 to 16 µg/mL (≈ 2.33 to 37.2 µM).
Take `C[C@@H](Sc1cc(F)cc(F)c1Cl)C(=O)N(Cc1nnc(N)o1)Cc1ccc(C#N)cc1F` [compound 98]: the MIC (in assay [1]; against P. aeruginosa LESB58) was more than 64 µg/mL throughout.
In the case of `[2H]C([2H])(Oc1cc(F)cc(F)c1C([2H])([2H])C([2H])([2H])[2H])C(=O)N(Cc1nnc(N)o1)Cc1ccc(C#N)cc1F` [compound 77, N-[(5-amino-1,3,4-oxadiazol-2-yl)methyl]-N-[(4-cyano-2-fluoro-phenyl)methyl]-2,2-dideuterio-2-[3,5-difluoro-2-(1,1,2,2,2-pentadeuterioethyl)phenoxy]acetamide], the MIC (in assay [1]; against P. aeruginosa LESB58) was 1 to 16 µg/mL (≈ 2.21 to 35.4 µM) each time.
As for `C[C@H](Sc1cc(F)cc(F)c1Cl)C(=O)N(Cc1nnc(N)o1)Cc1ccc(C#N)cc1F` [compound 103], the MIC (in assay [1]; against P. aeruginosa LESB58) was more than 64 µg/mL throughout.

Source of the values: US20240166612A1, “ARYLTHIOETHER ACETAMIDE AND RELATED COMPOUNDS AND THEIR USE IN TREATING MEDICAL CONDITIONS” (X-Biotix Therapeutics, Inc., priority 2021, published 2024).
